The source made the active and inactive calls. No cut-off for these calls is given here.
How the values were obtained:
[1] = target: T1, Protein kinase C eta type (Homo sapiens, UniProt P24723); assay: Binding affinity to PKCeta in human HeLa cell lysates at 10 nM to 100 uM after 2 hrs by immunoprecipitation analysis
HeLa [2] = assay: Drug uptake in human HeLa cells assessed as subcellular localization in endoplasmic reticulum at 10 uM after 6 hrs using blue-fluorescent IAF-tagged streptavidin staining by live cell microscopic analysis; type: ADME, cell-based
HeLa [3] = assay: Drug uptake in human HeLa cells assessed as subcellular localization in endoplasmic reticulum at 10 uM after 6 hrs using blue-fluorescent IAF-tagged streptavidin staining by live cell microscopic analysis presence of glycyrrhetic acid; type: ADME, cell-based
[4] = target: T1, Protein kinase C eta type; assay: Binding affinity to recombinant human PKCeta in after 2 hrs by microequilibrium dialysis assay
[5] = Binding affinity to mouse IAF-labeled immunoglobulin G mAb by immunoaffinity fluorescent method
HeLa [6] = assay: Drug uptake in human HeLa cells assessed as subcellular localization in endoplasmic reticulum at 25 uM after 6 hrs by live cell microscopic analysis; type: ADME, cell-based

T1 sequence (P24723 whole entry): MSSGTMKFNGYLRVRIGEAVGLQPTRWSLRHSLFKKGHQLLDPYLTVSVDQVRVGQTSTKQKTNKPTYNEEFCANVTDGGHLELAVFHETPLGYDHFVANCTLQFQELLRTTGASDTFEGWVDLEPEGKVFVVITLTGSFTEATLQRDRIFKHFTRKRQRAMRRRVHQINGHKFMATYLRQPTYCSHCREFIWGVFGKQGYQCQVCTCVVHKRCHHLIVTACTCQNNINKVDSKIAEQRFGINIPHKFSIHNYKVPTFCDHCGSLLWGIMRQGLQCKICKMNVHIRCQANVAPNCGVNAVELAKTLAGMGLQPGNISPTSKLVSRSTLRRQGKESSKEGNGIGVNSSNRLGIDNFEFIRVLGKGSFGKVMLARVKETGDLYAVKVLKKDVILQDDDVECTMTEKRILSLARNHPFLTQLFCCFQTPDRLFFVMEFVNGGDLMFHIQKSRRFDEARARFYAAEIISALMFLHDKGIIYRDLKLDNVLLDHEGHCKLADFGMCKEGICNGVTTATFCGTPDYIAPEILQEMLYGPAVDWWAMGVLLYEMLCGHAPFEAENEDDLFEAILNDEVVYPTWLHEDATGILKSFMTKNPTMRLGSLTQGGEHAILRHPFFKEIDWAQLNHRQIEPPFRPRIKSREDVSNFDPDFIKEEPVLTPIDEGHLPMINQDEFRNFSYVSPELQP

| SMILES | Activity [1] | Drug uptake (HeLa [2]) | Kd [4] | other results |
| --- | --- | --- | --- | --- |
| CC1(C)[C@@H](O)CC[C@]2(C)[C@H]3C(=O)C=C4[C@@H]5C[C@@](C)(C(=O)NCCN=[N+]=[N-])CC[C@]5(C)CC[C@@]4(C)[C@]3(C)CC[C@@H]12 | inactive |  |  |  |
| CN(C)c1ccc2c(CC(=O)NCCNC(=O)[C@@]3(C)CC[C@]4(C)CC[C@]5(C)C(=CC(=O)[C@@H]6[C@@]7(C)CC[C@H](O)C(C)(C)[C@@H]7CC[C@]65C)[C@@H]4C3)cc(=O)oc2c1 |  | Active | 0.64 µM | Drug uptake (HeLa [3]): Not Active; Kd [5]: 0.54 µM |
| CC1(C)[C@@H](O)CC[C@]2(C)[C@H]3C(=O)C=C4[C@@H]5C[C@@](C)(C(=O)O)CC[C@]5(C)CC[C@@]4(C)[C@]3(C)CC[C@@H]12 [ENOXOLONE] |  |  | 0.25 µM | Drug uptake (HeLa [6]): Active |
| CC1(C)[C@@H](O)CC[C@]2(C)[C@H]3C(=O)C=C4[C@@H]5C[C@@](C)(C(=O)NCCNC(=O)CCCC[C@@H]6SC[C@@H]7NC(=O)N[C@@H]76)CC[C@]5(C)CC[C@@]4(C)[C@]3(C)CC[C@@H]12 |  | Not Active |  |  |
| C#CCNC(=O)Cc1cc(=O)oc2cc(N(C)C)ccc12 | inactive |  |  |  |
